Values joined by “and” are separate entries in the source; they are usually repeats but may differ in a detail not shown here. Identical values can stand only once. “Also recorded” adds a separate entry of the source. Peptide text beside a SMILES is read from it.
Legend:
GABAB receptor = target: T1, GABAB receptor (Rattus norvegicus, UniProt O88871+Q9Z0U4); settings: rat neocortical slices; cited from earlier work
T1 construct: GABAB receptor-mediated hyperpolarizing responses to baclofen in rat neocortical slices (Kerr, 2003); host or cells: rat neocortical slices (tissue, endogenous receptor)
T1 sequence (O88871 41-940): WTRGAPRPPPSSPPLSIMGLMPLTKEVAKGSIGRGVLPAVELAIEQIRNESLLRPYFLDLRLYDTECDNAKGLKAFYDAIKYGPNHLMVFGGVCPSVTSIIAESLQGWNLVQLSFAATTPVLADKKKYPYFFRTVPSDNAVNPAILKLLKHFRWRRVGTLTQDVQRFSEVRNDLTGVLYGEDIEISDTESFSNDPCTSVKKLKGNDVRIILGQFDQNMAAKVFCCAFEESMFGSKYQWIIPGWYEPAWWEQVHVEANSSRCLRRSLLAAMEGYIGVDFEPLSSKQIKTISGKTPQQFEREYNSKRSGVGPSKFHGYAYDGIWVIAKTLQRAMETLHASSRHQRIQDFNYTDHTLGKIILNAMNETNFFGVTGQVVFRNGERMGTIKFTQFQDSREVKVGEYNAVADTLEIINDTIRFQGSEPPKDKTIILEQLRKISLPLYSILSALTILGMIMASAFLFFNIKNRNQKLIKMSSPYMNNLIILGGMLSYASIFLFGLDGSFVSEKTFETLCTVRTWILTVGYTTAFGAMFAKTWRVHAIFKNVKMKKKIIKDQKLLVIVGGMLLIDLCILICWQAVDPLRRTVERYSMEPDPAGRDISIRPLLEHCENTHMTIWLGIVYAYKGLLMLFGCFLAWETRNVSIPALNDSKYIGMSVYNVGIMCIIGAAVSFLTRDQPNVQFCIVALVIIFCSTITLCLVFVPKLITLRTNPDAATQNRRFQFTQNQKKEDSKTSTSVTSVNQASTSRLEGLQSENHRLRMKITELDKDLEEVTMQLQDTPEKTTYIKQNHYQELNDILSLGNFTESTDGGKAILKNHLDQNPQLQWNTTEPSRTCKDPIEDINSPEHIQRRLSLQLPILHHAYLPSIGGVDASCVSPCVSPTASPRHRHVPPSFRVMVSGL
T1 sequence (Q9Z0U4 17-960): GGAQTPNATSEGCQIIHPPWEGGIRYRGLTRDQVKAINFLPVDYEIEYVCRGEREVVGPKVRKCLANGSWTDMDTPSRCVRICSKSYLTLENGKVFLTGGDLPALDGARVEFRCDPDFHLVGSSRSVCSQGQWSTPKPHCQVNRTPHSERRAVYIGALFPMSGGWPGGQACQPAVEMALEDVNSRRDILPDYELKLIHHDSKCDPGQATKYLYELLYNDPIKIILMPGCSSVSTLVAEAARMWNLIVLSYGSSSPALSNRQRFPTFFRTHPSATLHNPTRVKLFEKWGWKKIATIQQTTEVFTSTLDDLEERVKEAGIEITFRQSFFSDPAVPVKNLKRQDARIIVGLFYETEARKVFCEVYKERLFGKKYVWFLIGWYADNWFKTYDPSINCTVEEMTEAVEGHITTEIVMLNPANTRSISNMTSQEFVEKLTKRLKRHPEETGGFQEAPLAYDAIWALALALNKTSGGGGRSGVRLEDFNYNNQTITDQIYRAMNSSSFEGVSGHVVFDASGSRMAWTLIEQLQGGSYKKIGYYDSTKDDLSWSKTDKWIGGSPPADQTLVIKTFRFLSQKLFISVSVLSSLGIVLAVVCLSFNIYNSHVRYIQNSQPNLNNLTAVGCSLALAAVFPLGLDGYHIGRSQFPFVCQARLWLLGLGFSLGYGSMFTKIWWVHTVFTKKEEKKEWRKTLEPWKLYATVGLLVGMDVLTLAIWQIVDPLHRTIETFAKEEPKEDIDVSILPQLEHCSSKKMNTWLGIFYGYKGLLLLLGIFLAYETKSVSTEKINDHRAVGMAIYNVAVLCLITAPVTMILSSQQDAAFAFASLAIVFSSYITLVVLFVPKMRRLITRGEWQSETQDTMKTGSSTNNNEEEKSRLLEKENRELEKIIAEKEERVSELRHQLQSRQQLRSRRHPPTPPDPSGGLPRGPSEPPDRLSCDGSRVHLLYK

[1] = system: presynaptic terminals of cultured hippocampal neurons; assay: TBS-induced presynaptic plasticity measured by FM 1-43 dye uptake in hippocampal cultures; assay type: cell-based, rat; settings: for TBS-induced potentiation / plasticity after prolonged treatment: 48 hours of incubation
[2] = system: excitatory and inhibitory terminals; settings: short treatment (2-24 hr)
[3] = system: cultured hippocampal neurons; assay: control recordings of membrane potential, synaptic inputs and firing; assay type: cell-based, rat; settings: treatments of FIG. 5D
Experimental: (§1) Electrophysiology. Dual whole cell perforated patch clamp recordings were made on two interconnected cultured hippocampal pyramidal neurons. Perforated patch pipettes were front-filled with a solution containing (in mM): CsOH, 127; D-gluconic acid, 127; CsCl, 4; HEPES, 10; NaCl, 8; EGTA, 0.4; pH was adjusted to 7.25 with CsOH, and then back-filled with the same solution containing […] amphotericin B (Sigma, St. Louis, Mo.). Extracellular solution contained (in mM): NaCl, 145; KCl, 3; glucose, 15; HEPES, 10; MgCl2, 0.8-1.2; CaCl2, 1.2; 0.005 glycine (Sigma), 0.05 picrotoxin (Sigma); pH adjusted to 7.4 with NaOH. MgCl2 concentration was matched to its concentration in culture medium. In experiments where effects of drugs on neuronal activity were quantified (FIG. 4D), recordings were done in culture medium (with HEPES replacing bicarbonate/CO2 to maintain pH). All experiments were performed at room temperature. For assaying synaptic connectivity, each neuron was stimulated by 1 ms step depolarization from −70 to +30 mV in voltage-clamp mode. Only neurons with monosynaptic connections were used. […] Recordings with access resistance>20 MΩ or that varied substantially were rejected from analysis.

[4] = target: NMDA receptors (NR2B-containing) (Rattus norvegicus, UniProt P35439+Q00960); assay: evoked NMDA currents ([…]), double-perforated patch; assay type: cell-based
Sequence of NMDA receptors (NR2B-containing) (Q00960 27-1482, other chains not shown): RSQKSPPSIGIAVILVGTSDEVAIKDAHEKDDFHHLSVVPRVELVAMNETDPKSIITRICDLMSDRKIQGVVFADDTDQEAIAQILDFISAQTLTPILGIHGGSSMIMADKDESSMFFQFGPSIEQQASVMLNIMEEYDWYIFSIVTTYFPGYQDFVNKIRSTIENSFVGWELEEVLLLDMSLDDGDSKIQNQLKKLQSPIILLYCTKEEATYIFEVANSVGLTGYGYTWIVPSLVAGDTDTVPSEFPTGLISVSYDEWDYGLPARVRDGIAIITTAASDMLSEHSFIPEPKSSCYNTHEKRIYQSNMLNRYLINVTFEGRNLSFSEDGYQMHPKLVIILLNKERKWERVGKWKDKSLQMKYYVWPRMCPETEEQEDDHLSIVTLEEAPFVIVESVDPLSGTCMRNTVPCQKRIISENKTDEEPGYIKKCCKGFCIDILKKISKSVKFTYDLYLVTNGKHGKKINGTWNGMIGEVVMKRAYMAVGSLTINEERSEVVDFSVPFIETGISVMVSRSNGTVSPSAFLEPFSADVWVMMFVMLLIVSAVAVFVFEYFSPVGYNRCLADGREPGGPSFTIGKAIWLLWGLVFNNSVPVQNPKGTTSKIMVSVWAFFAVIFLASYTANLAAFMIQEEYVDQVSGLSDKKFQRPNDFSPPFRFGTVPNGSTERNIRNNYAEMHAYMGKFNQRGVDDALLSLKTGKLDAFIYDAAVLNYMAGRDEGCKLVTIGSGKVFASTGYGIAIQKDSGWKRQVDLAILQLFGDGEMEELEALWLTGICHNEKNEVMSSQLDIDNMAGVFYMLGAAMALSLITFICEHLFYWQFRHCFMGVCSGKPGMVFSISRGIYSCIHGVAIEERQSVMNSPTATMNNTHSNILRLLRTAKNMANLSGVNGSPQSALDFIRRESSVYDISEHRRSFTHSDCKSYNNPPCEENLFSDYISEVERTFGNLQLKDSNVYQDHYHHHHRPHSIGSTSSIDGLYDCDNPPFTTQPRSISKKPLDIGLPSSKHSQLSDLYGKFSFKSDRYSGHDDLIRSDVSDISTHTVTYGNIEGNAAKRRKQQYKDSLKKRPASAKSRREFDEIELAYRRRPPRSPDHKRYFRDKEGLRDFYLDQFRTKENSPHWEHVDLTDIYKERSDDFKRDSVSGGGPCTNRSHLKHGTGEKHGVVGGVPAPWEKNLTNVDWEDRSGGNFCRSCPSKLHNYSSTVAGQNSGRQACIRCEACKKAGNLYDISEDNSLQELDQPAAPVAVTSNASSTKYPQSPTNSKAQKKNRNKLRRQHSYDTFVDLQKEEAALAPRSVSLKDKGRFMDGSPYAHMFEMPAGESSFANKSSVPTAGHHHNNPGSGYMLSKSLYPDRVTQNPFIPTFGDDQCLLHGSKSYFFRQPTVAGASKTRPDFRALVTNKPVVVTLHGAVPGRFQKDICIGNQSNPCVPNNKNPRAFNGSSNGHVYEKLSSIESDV
Experimental: as §1
We hypothesized that one target may be the number and properties of NMDA receptors at individual synapses.

[5] = system: postsynaptic locations of cultured hippocampal neurons; assay: postsynaptic evoked current response to iontophoretic glutamate (AMPA-R insertion); assay type: cell-based, rat; settings: Mg^++-treated culture; reversed by washout
From the text: These were generally as described in the preceding examples. Glutamatergic iontophoresis was perfomed as described [Murnick 2000].
Since we wished to correlate the above pre-synaptic findings to the plasticity of single or small clusters of postsynaptic locations, this ruled out traditional double-patch plasticity experiments in which heterogeneous populations of connections are studied. Such studies also usually confound pre-synaptic and postsynaptic effects. For this purpose, we developed a technique of high-temporal and spatial resolution glutamatergic iontophoresis that allows us to stimulate single or small clusters of postsynaptic locations (resolution ˜2 μm, 1 ms; [Murnick 2000]).
To determine whether a decrease in overall activity of a neural network leads to increased plasticity (i.e., an increase in synaptic strength in response to a pattern of stimulation) of postsynaptic locations, we assessed the effect of treatment with Mg^++ on the ability of postsynaptic locations to respond to glutamate. As described above, Mg^++ blocks the NMDA receptor channel at resting membrane potential, so Mg^++ treatment reduces the overall activity level of the neural network. As also described above, increases in postsynaptic intracellular Ca^++ stimulated by activation of NMDA receptors leads to recruitment of AMPA receptors and their insertion into the postsynaptic membrane. […]

[6] = system: structural synaptic terminals; assay: FM dye uptake of structural synaptic terminals, 30 AP protocol; assay type: cell-based, rat; settings: 100 ng/ml BDNF
Experimental: FM 1-43 Loading and Destaining. Functional presynaptic boutons were stained with 10 μM FM 1-43 (synaptogreen, Biotium) by eliciting 30 APs at 0.5-1 Hz. This loading protocol was chosen to avoid short-term plasticity and “re-use” of vesicles through “kiss-run” mode of exocytosis (Aravanis et al., 2003). The neurons were stimulated to fire action potentials by passing 1 ms 50 mA current through platinum electrodes placed at a distance of 7 mm from both sides of the chamber. To ensure reliable action potential initiation, the current amplitude was chosen to be 50% above the threshold for action potential generation, as confirmed by whole-cell patch clamp recording. To prevent recurrent activity, excitatory postsynaptic responses were blocked completely by the addition of DL-AP5 (50 μM, Sigma) and NBQX (10 μM, Sigma) during FM loading and unloading procedures. […]
To further determine the number of these very low Pr terminals and their proportion to the whole population of functional synaptic terminals, we compared the co-localization of FM puncta obtained for the 30 AP loading with puncta obtained using fluorescent antibodies against specific presynaptic proteins. […] Twenty percent more functional synapses were detected by this procedure, also consistent with a previous report (Murthy et al., 1997). […]

For `CC(C)C[C@H](NC(=O)[C@@H](N)Cc1ccccc1)C(=O)O` [L-Phe-Leu] (H-Phe-Leu-OH), the “potency as potentiator of GABAB receptor-mediated hyperpolarizing responses to baclofen” value (shortened to “potency as potentiator”) (GABAB receptor) is listed as “Most potent”.

In the case of `CN1C(=O)CN=C(c2ccccc2F)c2cc([N+](=O)[O-])ccc21` [flunitrazepam, reference compound], the “TBS-induced potentiation / plasticity after prolonged treatment” value [1] is reported as “no significant TBS-induced potentiation; also recorded: lose plasticity”.

In the case of `N[C@@H](Cc1ccccc1)C(=O)O` [L-Phe], the “potency as potentiator” value (GABAB receptor) is given as “Most potent”.

For `NS(=O)(=O)c1cccc2c1c([N+](=O)[O-])cc1nc(O)c(O)nc12` [NBQX, reference compound], the “change of synaptic density” value [2] was “No short treatment (2-24 hr, baclofen, nimodepine, NBQX, and TTX) produced a significant change of synaptic density” and the “TBS-induced potentiation / plasticity after prolonged treatment” value [1] was “no significant TBS-induced potentiation; also recorded: lose plasticity”.

For `C[C@@H](O)[C@H](N)C(=O)O` [L-Thr], the “potency as potentiator” value (GABAB receptor) is given as “less potent”.

With `[Zn+2]` [Zn^++] the “change in average firing rates of neurons within cultured neural networks” value [3] was “none of these treatments induces a significant change”, the “plasticity of presynaptic terminals after partial block of Ca flux” value ([1]; 0.4 mM Mg^++ added or 5 mM Zn^++ two weeks, 10 mM nimodipine 2 days) was “significant increases of plasticity” and the “optimal concentration for plasticity (maximal potentiability)” value ([1]; 2 weeks treatment) was 2 mM. The “increase of synaptic strength at optimum concentration” value ([1]; FIGS. 6H-6J) was “up to approximately five-fold”.

In the case of `CC(C)C[C@H](N)C(=O)O` [L-Leu], the “potency as potentiator” value (GABAB receptor) is listed as “Most potent”.

In the case of `N[C@@H](Cc1ccccc1)C(=O)N[C@@H](Cc1ccccc1)C(=O)O` [L-Phe-Phe] (H-Phe-Phe-OH), the “potency as potentiator” value (GABAB receptor) is given as “Most potent”.

For `N[C@@H](CSSC[C@H](N)C(=O)O)C(=O)O` [L-Cystine], the “potency as potentiator” value (GABAB receptor) is given as “less potent”.

For `N[C@@H](CO)C(=O)O` [L-Ser], the “potency as potentiator” value (GABAB receptor) is given as “less potent”.

For `N[C@@H](CS)C(=O)O` [L-Cys], the “potency as potentiator” value (GABAB receptor) is listed as “less potent”.

For L-Ile, the “potency as potentiator” value (GABAB receptor) is given as “Most potent”.

For `N[C@@H](Cc1ccc(O)cc1)C(=O)O` [L-Tyr], the “potency as potentiator” value (GABAB receptor) is listed as “less potent”.

For `CC(C(O)c1ccc(O)cc1)N1CCC(Cc2ccccc2)CC1` (stereo not drawn) [ifenprodil], the reduction of current [4] was 53%, the “reduction of total charge transfer” value [4] was 85% and 45% and the “reduction of total charge transfer of EPSCNMDA” value [4] was 80% and 45% and 45±2%. For the same molecule, the “reduction of TBS-induced presynaptic potentiation” value ([1]; 1 μM ifenprodil, 1.2 mM Mg^2+ cultures) was 50% and 48±7%.

With D-AP5 [reference compound] the “theta-burst-induced changes of Pr (F2/F1, N2/N1, S2/S1) in presence of NMDAR blocker” value [1] was “No detectable changes of Pr” and the “effect of NMDA antagonist on the increase in postsynaptic current” value [5] was “blocked it”.

In the case of `N=C(N)NCCC[C@H](N)C(=O)O` [L-Arg], the “potency as potentiator” value (GABAB receptor) is listed as “less potent”.

For `CC(C)[C@H](N)C(=O)O` [L-Val], the “potency as potentiator” value (GABAB receptor) is given as “less potent”.

For `CSCC[C@H](N)C(=O)O` [L-Met], the “potency as potentiator” value (GABAB receptor) is given as “less potent”.

B1: BDNF: neurotrophin known to increase the Pr of synaptic terminals (protein, UniProt P23560 19-247, looked up)
Neurotrophic factor BDNF …: APMKEANIRGQGGLAYPGVRTHGTLESVNGPKAGSRGLTSLADTFEHVIEELLDEDQKVRPNEENNKDADLYTSRVMLSSQVPLEPPLLFLLEEYKNYLDAANMSMRVRRHSDPARRGELSVCDSISEWVTAADKKTAVDMSGGTVTVLEKVPVSKGQLKQYFYETKCNPMGYTKEGCRGIDKRHWNSQCRTTQSYVRALTMDSKKRIGWRFIRIDTSCVCTLTIKRGR
In the case of B1, the “FM dye uptake by structural synaptic terminals” value [6] is reported as “all structural synaptic terminals became capable of taking up FM dye”.
